In brackets after ≈: the same amount, converted by molar mass.
Columns and labels:
[1] = tested on: esophageal cancer Eca-109 cells; test: Cell proliferation assay (CCK-8); type: cell-based; conditions: Homo sapiens, Eca-109, 72 h
Excerpt: (§1) CCK-8 method: The CCK-8 method is a highly sensitive, non-radioactive colorimetric assay for the determination of the number of viable cells in cell proliferation or cytotoxicity assays. The orange formazan dye produced by the bioreduction of CCK-8 by intracellular dehydrogenase is soluble in the cell culture medium, and the amount of formazan dye produced is proportional to the number of living cells. The kit used in this method is the tetrazolium salt-WST-8 (2-(2-methoxy-4-nitrophenyl)-3-(4-nitrophenyl)-5-(2,4-disulfophenyl)-2H-tetrazolium monosodium salt) developed by Dojindo Chemical Research Institute (Dojindo), which is capable of being reduced to a water-soluble formazan dye in the presence of the electronic carrier 1-Methoxy PMS.
(§2) Human cervical cancer Hela cells, pancreatic cancer PANC-1 cells, esophageal cancer Eca-109 cells, human leukemia K562 cells, human lung cancer A549 cells, human liver cancer HepG2 cells, human gastric cancer MKN-45 cells, human breast cancer MCF7 cells were cultured in DMEM medium containing 10% FBS (fetal bovine serum), 100 U/mL penicillin and 100 μg/ml streptomycin. Hepatocellular carcinoma cells Bel-7402 were cultured in RPMI-1640 medium containing 10% FBS (fetal bovine serum), 100 U/ml penicillin and 100 μg/ml streptomycin. All cells were placed in a cell culture incubator at 37° C. with 5% CO2. Cells fluid was changed every 3-5 days, and after 80% cell fusion, trypsin digestion and passaging were performed to keep the cells in good logarithmic growth phase.
(§3) All the samples to be tested were dissolved in DMSO.
(§4) Cells in logarithmic growth phase were inoculated in 96-well plates with 5000 cells/well respectively, and after 24 h of incubation, samples were added (final concentrations as shown in the table), and biplicate wells were set up for each sample. The amount of solvent of DMSO was not higher than 2‰. After 72 h, 10 μL of CCK-8 solution was added to each well and incubated for 1.5˜3 h at 37° C. The OD value at 450 nm was measured on an plate reader.
(§5) Inhibition rate (%)=(1−[(OD450 dosed well−OD450 blank well)/(OD450 control well−OD450 blank well)])×100%
(§6) The fitted IC50 values were calculated using the log (inhibitor) vs. response-Variable slop analysis method in GraphPad Prism software.

[2] = tested on: human lung cancer A549 cells; test: Cell proliferation assay (CCK-8); type: cell-based; conditions: A549, 72 h
Excerpt: as §1, §2, §3, §4, §5, §6

[3] = tested on: human liver cancer HepG2 cells; test: Cell proliferation assay (CCK-8); type: cell-based; conditions: HepG2, 72 h
Excerpt: as §1, §2, §3, §4, §5, §6

[4] = tested on: pancreatic cancer PANC-1 cells; test: Cell proliferation assay (CCK-8); type: cell-based; conditions: Homo sapiens, PANC-1, 72 h
Excerpt: as §1, §2, §3, §4, §5, §6

[5] = tested on: human breast cancer MCF7 cells; test: Cell proliferation assay (CCK-8); type: cell-based; conditions: MCF7, 72 h
Excerpt: as §1, §2, §3, §4, §5, §6

[6] = tested on: human gastric cancer MKN-45 cells; test: Cell proliferation assay (CCK-8); type: cell-based; conditions: MKN-45, 72 h
Excerpt: as §1, §2, §3, §4, §5, §6

[7] = tested on: human leukemia K562 cells; test: Cell proliferation assay (CCK-8); type: cell-based; conditions: K562, 72 h
Excerpt: as §1, §2, §3, §4, §5, §6

[8] = tested on: Human cervical cancer Hela cells; test: Cell proliferation assay (CCK-8); type: cell-based; conditions: 72 h
Excerpt: as §1, §2, §3, §4, §5, §6

[9] = Solubility test (shaking 24 h at 37° C., HPLC)
Method: (§7) Methods: Excess BFA and the compounds disclosed herein were added to 10 mL of three solvents, methanol, acetone and 5% DMSO+95% H2O, respectively, and shaken on a shaker at 37° C. at 100 r/min for 24 h. After 24 h, the samples were centrifuged at 15 000 r/min for 15 min to remove the undissolved compounds. The supernatant was filtered using a 0.45 μm membrane filter. The supernatant was appropriately diluted with methanol and contents of the compounds were determined by HPLC method to calculate the solubility.

Kunming breed mice = test: Toxicity test after intraperitoneal administration to mice; type: in vivo; conditions: 14 d; for Deaths: high and low doses (BFA effective amount conversion), ip., mice; for Mental condition of the animals after administration / Results of anatomy: abnormality in organs: male, Kunming, mouse, in vivo, ip
Procedure: Objective: Observation of toxic effects of compounds after intraperitoneally administration (ip.) to mice
1) Agents: Compounds disclosed herein were formulated to a suitable concentration.
2) Animals: Kunming breed mice, weight 18-22 g, male. Provided by Jinan Pengyue Laboratory Animal Breeding Co., Ltd. Animal license number: SCXK (Shandong 20140007)
Method: Kunming breed mice, were randomly grouped by weight, 6 mice per group, namely normal control group, BFA high and low dose groups (100 mg/kg and 50 mg/kg, respectively), and high and low dose groups of some compounds disclosed herein (BFA effective amount conversion). […] After 14 d of continuous administration, all the animals were weighed, and the animals were executed to observe whether there were any abnormalities in the organs.

physchem = conditions: 37° C., x ± s, n = 3
Method: as §7

SMILES	IC50 [1]	IC50 [2]	IC50 [3]	IC50 [4]	IC50 [5]	IC50 [6]	IC50 [7]	IC50 [8]	solubility at 24 h ([9]; 5% DMSO + 95% H2O)	solubility at 24 h ([9]; acetone)	solubility at 24 h ([9]; methanol)	Deaths (Kunming breed mice)	Mental condition of the animals after administration (Kunming breed mice)	Results of anatomy: abnormality in organs (Kunming breed mice)	solubility at 24 h (physchem; Acetone)	solubility at 24 h (physchem; 5% DMSO + 95% H2O)	solubility at 24 h (physchem; Methanol)
C[C@H]1CCC/C=C/[C@@H]2C[C@H](OC(=O)/C=C/c3cccc(F)c3)C[C@H]2[C@H](O)/C=C/C(=O)O1 [Compound 1a, 7-O-(3-fluorocinnamic acid)acyl BFA]	1 to 10 µM	0.1 to 1 µM	0.1 to 1 µM	0.1 to 1 µM	0.1 to 1 µM	0.1 to 1 µM	0.1 to 1 µM	1 to 10 µM	0.33 ± 0.13 mg/mL	21.9 ± 1.53 mg/mL (≈ 51.1 mM)	21.3 ± 1.52 mg/mL (≈ 49.8 mM)	no deaths	good mental condition	no significant abnormality in all organs			
C[C@H]1CCC/C=C/[C@@H]2C[C@H](O)C[C@H]2[C@H](OC(=O)/C=C/c2cccc(F)c2)/C=C/C(=O)O1 [Compound 1b, 4-O-(3-fluorocinnamic acid)acyl BFA]	0.1 to 1 µM	0.1 to 1 µM	0.1 to 1 µM	0.1 to 1 µM	0.1 to 1 µM	0.1 to 1 µM	0.1 to 1 µM	0.1 to 1 µM	0.32 ± 0.05 mg/mL	21 ± 1.42 mg/mL (≈ 49.1 mM)	21.1 ± 1.32 mg/mL (≈ 49.3 mM)	no deaths	good mental condition	no significant abnormality in all organs			
C[C@H]1CCC/C=C/[C@@H]2C[C@H](OC(=O)/C=C/c3cccc(F)c3)C[C@H]2[C@H](OC(=O)/C=C/c2cccc(F)c2)/C=C/C(=O)O1 [Compound 1c, 4,7-O-bis(3-fluorocinnamic acid)acyl BFA]	1 to 10 µM	1 to 10 µM	1 to 10 µM	1 to 10 µM	1 to 10 µM	0.1 to 1 µM	0.1 to 1 µM	1 to 10 µM	0.2 ± 0.91 mg/mL	12.1 ± 0.91 mg/mL (≈ 21.1 mM)	12.2 ± 1.59 mg/mL (≈ 21.2 mM)	no deaths	good mental condition	no significant abnormality in all organs			
C[C@H]1CCC/C=C/[C@@H]2C[C@H](OC(=O)/C=C/c3ccc(N(C)C)cc3)C[C@H]2[C@H](O)/C=C/C(=O)O1 [Compound 10a, 7-O-(4-dimethylaminocinnamic acid)acyl BFA]	1 to 10 µM	0.1 to 1 µM	1 to 10 µM	1 to 10 µM	0.1 to 1 µM	0.1 to 1 µM	0.1 to 1 µM	1 to 10 µM	0.75 ± 1.6 mg/mL	25.6 ± 1.74 mg/mL (≈ 56.5 mM)	25.3 ± 4.35 mg/mL (≈ 55.7 mM)	no deaths	good mental condition	no significant abnormality in all organs			
C[C@H]1CCC/C=C/[C@@H]2C[C@H](O)C[C@H]2[C@H](OC(=O)/C=C/c2ccc(N(C)C)cc2)/C=C/C(=O)O1 [Compound 10b, 4-O-(4-dimethylaminocinnamic acid)acyl BFA]	1 to 10 µM	0.1 to 1 µM	0.1 to 1 µM	0.1 to 1 µM	0.1 to 1 µM	0.1 to 1 µM	0.1 to 1 µM	0.1 to 1 µM	0.72 ± 0.13 mg/mL	23.2 ± 1.32 mg/mL (≈ 51.1 mM)	24.2 ± 1.22 mg/mL (≈ 53.3 mM)	no deaths	good mental condition	no significant abnormality in all organs			
C[C@H]1CCC/C=C/[C@@H]2C[C@H](OC(=O)/C=C/c3ccc(N(C)C)cc3)C[C@H]2[C@H](OC(=O)/C=C/c2ccc(N(C)C)cc2)/C=C/C(=O)O1 [Compound 10c, 4,7-O-bis(4-dimethylaminocinnamic acid)acyl BFA]	1 to 10 µM	0.1 to 1 µM	1 to 10 µM	1 to 10 µM	1 to 10 µM	0.1 to 1 µM	0.1 to 1 µM	1 to 10 µM	0.44 ± 0.08 mg/mL	12.5 ± 0.92 mg/mL (≈ 20 mM)	13.3 ± 0.91 mg/mL (≈ 21.3 mM)	no deaths	good mental condition	no significant abnormality in all organs			
C[C@H]1CCC/C=C/[C@@H]2C[C@H](OC(=O)/C=C/c3cccnc3)C[C@H]2[C@H](O)/C=C/C(=O)O1 [Compound 16a, 7-O-(3-(pyridine-3-yl)acrylic acid)acyl BFA]	0.1 to 1 µM	0.1 to 1 µM	< 0.1 µM	< 0.1 µM	0.1 to 1 µM	0.1 to 1 µM	0.1 to 1 µM	0.1 to 1 µM				no deaths	good mental condition	no significant abnormality in all organs	31.6 ± 0.72 mg/mL (≈ 76.8 mM)		
C[C@H]1CCC/C=C/[C@@H]2C[C@H](OC(=O)/C=C/c3cccnc3)C[C@H]2[C@H](OC(=O)/C=C/c2cccnc2)/C=C/C(=O)O1 [Compound 16c]	1 to 10 µM	0.1 to 1 µM	0.1 to 1 µM	0.1 to 1 µM	1 to 10 µM	1 to 10 µM	0.1 to 1 µM	1 to 10 µM				no deaths	good mental condition	no significant abnormality in all organs			
C[C@H]1CCC/C=C/[C@@H]2C[C@H](OC(=O)/C=C/c3cnc4ccccc4c3)C[C@H]2[C@H](OC(=O)/C=C/c2cnc3ccccc3c2)/C=C/C(=O)O1 [Compound 17c]	1 to 10 µM	1 to 10 µM	0.1 to 1 µM	0.1 to 1 µM	0.1 to 1 µM	1 to 10 µM	0.1 to 1 µM	1 to 10 µM								0.45 ± 0.28 mg/mL	20.4 ± 0.52 mg/mL (≈ 31.8 mM)

Source: patent publication US20220064138A1, “MACROLIDE BREFELDIN A ESTER DERIVATIVES AND USE THEREOF” (OCEAN UNIVERSITY OF CHINA, priority 2019, published 2022)
